Reference: paper PMC6915728 (Nature Communications, 2019)
Where two headings read alike, the source gives them in different places.

How the values were obtained:
[1] = tested on: E. coli BW25113 overexpression strains (ASKA plasmids); test: Minimum inhibitory concentration (MIC), serial broth dilution, single-gene overexpression strains vs empty-vector control; type: cell-based, Escherichia coli; details: broth dilution, MS medium, 100 µM IPTG, 30 °C, 20-24 h, OD600, 3 replicates
Description: Minimum inhibitory concentrations (MIC) were determined with a standard serial broth dilution technique with a minor modification. Specifically, instead of a two-fold dilution series, smaller AMP concentration steps were used (typically 1.2-fold) for two reasons. […] Second, gene overexpressions caused typically only small changes in the MICs of AMPs and therefore higher resolution was required. The protocol was as follows. From a stock solution of an AMP, 12-steps serial dilution was prepared in fresh MS medium in 96-well microtiter plates. Each AMP was represented in 11 different concentrations (3 wells per AMP concentration per strain). Three wells contained only medium to check the growth in the absence of AMP. After overnight growth in MS medium supplemented with chloramphenicol, bacterial strains were diluted 20-fold into fresh MS medium and grown until the cell density reached OD600 ~1. Cells were induced by 100 µM of IPTG and incubated for 1 h at 30 °C with continuous shaking at 300 rpm. Following incubation, approximately half-million cells were inoculated into the wells of the 96-well microtiter plate with a 96‐pin replicator. We used three independent replicates for each strain and the corresponding control. Two rows in the 96-well plate contained only MS medium in order to obtain the background OD value of the medium. Plates were incubated at 30 °C with continuous shaking at 300 rpm. After 20–24 h of incubation, OD600 values were measured in a microplate reader (Biotek Synergy 2).

[2] = tested on: E. coli; details: previous laboratory evolution experiment; cited from earlier work
Description: The results presented in this study may have important implications for the development of AMP-based therapies. Previous works reported several instances of cross-resistance interactions between membrane-targeting peptides (Supplementary Data 1), however, the potential for cross-resistance across AMPs with different modes of action has remained poorly understood. Specifically, while cross-resistance between host and therapeutic AMPs is certainly a realistic danger, not all AMPs are equally prone to cross-resistance. Given the immense diversity of AMPs with major differences in physicochemical ...

[3] = tested on: AMP-evolved E. coli lines; details: ref Spohn et al 2019, cited from earlier work
Description: Supplement 41467_2019_13618_MOESM13_ESM.xlsx, sheet "Figure 6 and S15" | column: A comprehensive dataset of antimicrobial susceptibility of AMP-adapted lines to antimicrobial peptides (AMPs).

[4] = tested on: bacterial membrane; details: literature mining; ref superscript numbers in the cell, listed in Supplementary Data 7 sheet References; cited from earlier work
Description: Supplement 41467_2019_13618_MOESM10_ESM.xlsx, sheet "AMP details" | column: Pore formation

FLGKVFKLASKVFKAVFGKV [R8, synthetic AMP (from linguistic model); cluster C1]
Relative MIC ([1]; overexpression strain mlaD, MIC of the overexpression strain / MIC of the control strain (wild-type carrying the empty plasmid)): 1 | Relative MIC ([1]; overexpression strain mzrA, MIC of overexpression strain / MIC of empty-plasmid control): 1.3 | Relative MIC ([1]; overexpression strain yhbJ, MIC of overexpression strain / MIC of empty-plasmid control): 1 | Emergence of resistant lines in laboratory evolution [2]: did not result in any significant resistant lines | Relative change in MIC (MIC of the AMP-adpated line / MIC of the ancestral strain) ([3]; AMP-adapted line BAC5_3): 1 | Relative change in MIC (MIC of the AMP-adpated line / MIC of the ancestral strain) ([3]; AMP-adapted line BAC5_5): 1 | Relative change in MIC (MIC of the AMP-adpated line / MIC of the ancestral strain) ([3]; AMP-adapted line BAC5_7): 1.1 | Relative change in MIC (MIC of the AMP-adpated line / MIC of the ancestral strain) ([3]; AMP-adapted line BAC5_10): 1.1 | Relative change in MIC (MIC of the AMP-adpated line / MIC of the ancestral strain) ([3]; AMP-adapted line CAP18_2): 1.2 | Relative change in MIC (MIC of the AMP-adpated line / MIC of the ancestral strain) ([3]; AMP-adapted line CAP18_5): 1.1 | Relative change in MIC (MIC of the AMP-adpated line / MIC of the ancestral strain) ([3]; AMP-adapted line CAP18_6): 1 | Relative change in MIC (MIC of the AMP-adpated line / MIC of the ancestral strain) ([3]; AMP-adapted line CAP18_8): 1.1 | Relative change in MIC (MIC of the AMP-adpated line / MIC of the ancestral strain) ([3]; AMP-adapted line CAP18_10): 1.2 | Relative change in MIC (MIC of the AMP-adpated line / MIC of the ancestral strain) ([3]; AMP-adapted line HBD3_3): 1 | Relative change in MIC (MIC of the AMP-adpated line / MIC of the ancestral strain) ([3]; AMP-adapted line HBD3_6): 1.2 | Relative change in MIC (MIC of the AMP-adpated line / MIC of the ancestral strain) ([3]; AMP-adapted line HBD3_8): 1 | Relative change in MIC (MIC of the AMP-adpated line / MIC of the ancestral strain) ([3]; AMP-adapted line HBD3_10): 1 | Relative change in MIC (MIC of the AMP-adpated line / MIC of the ancestral strain) ([3]; AMP-adapted line LL37_1): 1.2 | Relative change in MIC (MIC of the AMP-adpated line / MIC of the ancestral strain) ([3]; AMP-adapted line LL37_3): 1.2 | Relative change in MIC (MIC of the AMP-adpated line / MIC of the ancestral strain) ([3]; AMP-adapted line LL37_6): 1 | Relative change in MIC (MIC of the AMP-adpated line / MIC of the ancestral strain) ([3]; AMP-adapted line LL37_7): 1.1 | Relative change in MIC (MIC of the AMP-adpated line / MIC of the ancestral strain) ([3]; AMP-adapted line LL37_10): 1.2 | Relative change in MIC (MIC of the AMP-adpated line / MIC of the ancestral strain) ([3]; AMP-adapted line PEX_1): 1.1 | Relative change in MIC (MIC of the AMP-adpated line / MIC of the ancestral strain) ([3]; AMP-adapted line PEX_4): 1.2 | Relative change in MIC (MIC of the AMP-adpated line / MIC of the ancestral strain) ([3]; AMP-adapted line PEX_5): 1.1 | Relative change in MIC (MIC of the AMP-adpated line / MIC of the ancestral strain) ([3]; AMP-adapted line PEX_6): 1 | Relative change in MIC (MIC of the AMP-adpated line / MIC of the ancestral strain) ([3]; AMP-adapted line PEX_7): 1.2 | Relative change in MIC (MIC of the AMP-adpated line / MIC of the ancestral strain) ([3]; AMP-adapted line PR39_1): 1.1 | Relative change in MIC (MIC of the AMP-adpated line / MIC of the ancestral strain) ([3]; AMP-adapted line PR39_2): 1 | Relative change in MIC (MIC of the AMP-adpated line / MIC of the ancestral strain) ([3]; AMP-adapted line PR39_5): 1 | Relative change in MIC (MIC of the AMP-adpated line / MIC of the ancestral strain) ([3]; AMP-adapted line PR39_7): 1 | Relative change in MIC (MIC of the AMP-adpated line / MIC of the ancestral strain) ([3]; AMP-adapted line PR39_10): 1 | Relative change in MIC (MIC of the AMP-adpated line / MIC of the ancestral strain) ([3]; AMP-adapted line PROA_2): 1 | Relative change in MIC (MIC of the AMP-adpated line / MIC of the ancestral strain) ([3]; AMP-adapted line PROA_3): 1 | Relative change in MIC (MIC of the AMP-adpated line / MIC of the ancestral strain) ([3]; AMP-adapted line PROA_7): 1 | Relative change in MIC (MIC of the AMP-adpated line / MIC of the ancestral strain) ([3]; AMP-adapted line PROA_8): 1 | Relative change in MIC (MIC of the AMP-adpated line / MIC of the ancestral strain) ([3]; AMP-adapted line PROA_9): 1 | Relative change in MIC (MIC of the AMP-adpated line / MIC of the ancestral strain) ([3]; AMP-adapted line PXB_2): 1 | Relative change in MIC (MIC of the AMP-adpated line / MIC of the ancestral strain) ([3]; AMP-adapted line PXB_5): 1.7 | Relative change in MIC (MIC of the AMP-adpated line / MIC of the ancestral strain) ([3]; AMP-adapted line PXB_6): 1.9 | Relative change in MIC (MIC of the AMP-adpated line / MIC of the ancestral strain) ([3]; AMP-adapted line PXB_8): 1.9 | Relative change in MIC (MIC of the AMP-adpated line / MIC of the ancestral strain) ([3]; AMP-adapted line PXB_10): 1.2

SWLSKTAKKLENSAKKRISEGIAIAIQGGPR [CP1, Cecropin P1, antimicrobial peptide, source Ascaris suum; disrupts cell membrane; cluster C1]
Relative MIC ([1]; overexpression strain nikB, MIC of overexpression strain / MIC of empty-plasmid control): 0.8 | Relative MIC ([1]; overexpression strain ptsN, MIC of overexpression strain / MIC of empty-plasmid control): 0.76 | Relative MIC ([1]; overexpression strain yiaJ, MIC of overexpression strain / MIC of empty-plasmid control): 0.8 | Emergence of resistant lines in laboratory evolution [2]: did not result in any significant resistant lines | Relative change in MIC (MIC of the AMP-adpated line / MIC of the ancestral strain) ([3]; AMP-adapted line BAC5_3): 1.1 | Relative change in MIC (MIC of the AMP-adpated line / MIC of the ancestral strain) ([3]; AMP-adapted line BAC5_5): 1.2 | Relative change in MIC (MIC of the AMP-adpated line / MIC of the ancestral strain) ([3]; AMP-adapted line BAC5_7): 1 | Relative change in MIC (MIC of the AMP-adpated line / MIC of the ancestral strain) ([3]; AMP-adapted line BAC5_10): 1 | Relative change in MIC (MIC of the AMP-adpated line / MIC of the ancestral strain) ([3]; AMP-adapted line CAP18_2): 1 | Relative change in MIC (MIC of the AMP-adpated line / MIC of the ancestral strain) ([3]; AMP-adapted line CAP18_5): 1.2 | Relative change in MIC (MIC of the AMP-adpated line / MIC of the ancestral strain) ([3]; AMP-adapted line CAP18_6): 1 | Relative change in MIC (MIC of the AMP-adpated line / MIC of the ancestral strain) ([3]; AMP-adapted line CAP18_8): 1 | Relative change in MIC (MIC of the AMP-adpated line / MIC of the ancestral strain) ([3]; AMP-adapted line CAP18_10): 1 | Relative change in MIC (MIC of the AMP-adpated line / MIC of the ancestral strain) ([3]; AMP-adapted line HBD3_3): 1.1 | Relative change in MIC (MIC of the AMP-adpated line / MIC of the ancestral strain) ([3]; AMP-adapted line HBD3_6): 1.1 | Relative change in MIC (MIC of the AMP-adpated line / MIC of the ancestral strain) ([3]; AMP-adapted line HBD3_8): 1.2 | Relative change in MIC (MIC of the AMP-adpated line / MIC of the ancestral strain) ([3]; AMP-adapted line HBD3_10): 1.2 | Relative change in MIC (MIC of the AMP-adpated line / MIC of the ancestral strain) ([3]; AMP-adapted line LL37_1): 0.8 | Relative change in MIC (MIC of the AMP-adpated line / MIC of the ancestral strain) ([3]; AMP-adapted line LL37_3): 1 | Relative change in MIC (MIC of the AMP-adpated line / MIC of the ancestral strain) ([3]; AMP-adapted line LL37_6): 0.9 | Relative change in MIC (MIC of the AMP-adpated line / MIC of the ancestral strain) ([3]; AMP-adapted line LL37_7): 1.1 | Relative change in MIC (MIC of the AMP-adpated line / MIC of the ancestral strain) ([3]; AMP-adapted line LL37_10): 0.9 | Relative change in MIC (MIC of the AMP-adpated line / MIC of the ancestral strain) ([3]; AMP-adapted line PEX_1): 1.1 | Relative change in MIC (MIC of the AMP-adpated line / MIC of the ancestral strain) ([3]; AMP-adapted line PEX_4): 1.2 | Relative change in MIC (MIC of the AMP-adpated line / MIC of the ancestral strain) ([3]; AMP-adapted line PEX_5): 1.1 | Relative change in MIC (MIC of the AMP-adpated line / MIC of the ancestral strain) ([3]; AMP-adapted line PEX_6): 1 | Relative change in MIC (MIC of the AMP-adpated line / MIC of the ancestral strain) ([3]; AMP-adapted line PEX_7): 1.3 | Relative change in MIC (MIC of the AMP-adpated line / MIC of the ancestral strain) ([3]; AMP-adapted line PR39_1): 1.1 | Relative change in MIC (MIC of the AMP-adpated line / MIC of the ancestral strain) ([3]; AMP-adapted line PR39_2): 1.1 | Relative change in MIC (MIC of the AMP-adpated line / MIC of the ancestral strain) ([3]; AMP-adapted line PR39_5): 1 | Relative change in MIC (MIC of the AMP-adpated line / MIC of the ancestral strain) ([3]; AMP-adapted line PR39_7): 1 | Relative change in MIC (MIC of the AMP-adpated line / MIC of the ancestral strain) ([3]; AMP-adapted line PR39_10): 0.8 | Relative change in MIC (MIC of the AMP-adpated line / MIC of the ancestral strain) ([3]; AMP-adapted line PROA_2): 1.1 | Relative change in MIC (MIC of the AMP-adpated line / MIC of the ancestral strain) ([3]; AMP-adapted line PROA_3): 0.9 | Relative change in MIC (MIC of the AMP-adpated line / MIC of the ancestral strain) ([3]; AMP-adapted line PROA_7): 0.8 | Relative change in MIC (MIC of the AMP-adpated line / MIC of the ancestral strain) ([3]; AMP-adapted line PROA_8): 0.9 | Relative change in MIC (MIC of the AMP-adpated line / MIC of the ancestral strain) ([3]; AMP-adapted line PROA_9): 1.1 | Relative change in MIC (MIC of the AMP-adpated line / MIC of the ancestral strain) ([3]; AMP-adapted line PXB_2): 1.3 | Relative change in MIC (MIC of the AMP-adpated line / MIC of the ancestral strain) ([3]; AMP-adapted line PXB_5): 1 | Relative change in MIC (MIC of the AMP-adpated line / MIC of the ancestral strain) ([3]; AMP-adapted line PXB_6): 1.2 | Relative change in MIC (MIC of the AMP-adpated line / MIC of the ancestral strain) ([3]; AMP-adapted line PXB_8): 1.1 | Relative change in MIC (MIC of the AMP-adpated line / MIC of the ancestral strain) ([3]; AMP-adapted line PXB_10): 1.2 | Pore formation (whether AMP makes pores in the bacterial membrane) [4]: Yes6-8
